Data on three molecules can be found in US20040152903A1, “6-chloro-3-pyridylmethylpropylamine derivatives, preparation process thereof and bactericides” (priority 2004, published 2004).

Molecules are shown by their SMILES.

The test system of experiment [1] is cucumber powdery mildew. The experiment in a line: Test of control effect on cucumber powdery mildew. The format is in vivo. The settings on record: wettable powder 100 mg/l, 100 liters/10 a, cucumber (Sagamihanpakufushinari), examined 9th to 14th day after inoculation. How it is done:
(Test of Control Effect on Cucumber Powdery Mildew) The wettable powders formulated by using each of the compounds I-1 to 27 according to the present invention and the comparative compounds (a) to (d), (m-1) and (m-3) were each diluted and suspended with water to a predetermined concentration (100 mg/l), the suspension was sprinkled over the first to the second leaf period cucumbers (variety: “[…]”) cultivated by using a square plastic pot (size: 6.4 cm×6.4 cm) in a rate of 100 liters/10 a (ares). After the sprinkled leaves were air-dried, the spores were inoculated over the leaves by sprinkling the same with a brush from an infected leaf, a disease was contracted in a glass house (temperature: 20 to 24° C., relative humidity: 20 to 70 RH). On the 9th to 14th day after the inoculation, the infection degree was examined according to the following scale and the control value of each compound was calculated by the following calculation equation 2: (Examination Scale) [table]

Experiment [2] relates to Septoria tritici. Description: Antifungal activity test (PDA plate, hypha extension inhibition). The format is cell-based. The settings on record: 100 ppm in PDA culture medium. The protocol: (§1) (Antifungal Activity Test against Various Pathogenic Fungi) For each of the compounds I-1 to 27 of the present invention and the comparative compounds (a) to (d), (m-1) and (m-3), 20 mg was weighed and dissolved in 2 ml of dimethylsulfoxide, and a double dilution row in 10 steps was prepared by further using dimethylsulfoxide. A 0.6 ml portion of these solutions was each added to 60 ml of a PDA culture medium (potato-dextrose-agar culture medium) at about 60° C., they were well mixed in a 100 ml Erlenmeyer flask, the solution was poured into a schale and was solidified, the plate culture media containing the compounds according to the present invention with final concentrations of 100, 50.0, 25.0, 12.5, 6.3, 3.2, 1.6, 0.8, 0.4 and 0.2 mg/l were prepared. On the other hand, the specimen bacteria cultured on the plate culture media beforehand was punched by a 4 mm diameter cork borer, and was inoculated on the plate culture media containing the aforementioned chemicals. After the inoculation, the bacteria were cultured at the optimum growth temperature of each bacterium for 1 to 7 days (for this optimum growth temperature, LIST OF CULTURES 1996 Microorganisms 10th edition published by Fermentation Research Institute (Foundation) can be referred to.), and the growth of the bacteria was measured by the diameter of a colony. […] R=100(dc−dt)/dc (Equation 3) [wherein each symbol is shown as follows: R=Hypha extension inhibition rate (%), dc=Diameter of colony on no-treated plate, dt=Diameter of colony on chemical-treated plate.] The results obtained above was evaluated in 5 steps in accordance with the following examination scale. <Growth Inhibition> 5: Hypha extension inhibition rate of 90% or more 4: Hypha extension inhibition rate of from 70% to less than 90% 3: […] 2: […] In addition, the abbreviations in Table 10 are as follows: S.t: Septoria tritici

Experiment [3] relates to Botrytis cinerea. The description is as above. The format is cell-based. The settings on record: 1.6 ppm in PDA culture medium. The protocol:
as §1, with “B.c: Botrytis cinerea” for “S.t: Septoria tritici”

Experiment [4] deals with wheat powdery mildew. Description: Test of control effect on wheat powdery mildew. The format is in vivo. Set-up: Control Value: scale not given here. The settings on record: wettable powder 125 mg/l, 100 liters/10 a, wheat seedlings (Nourin 64), examined 9th to 14th day after inoculation. How it is done: (Test of Control Effect on Wheat Powdery Mildew) Wettable powders were prepared from compounds of the present invention I-1 to I-27 and comparative compounds (a) to (d), (m-1) and (m-3). The obtained wettable powder was diluted and suspended with water to provide the predetermined concentration (125 mg/l), and was sprinkled onto seedlings of wheat (variety: “Nourin 64”) at the first to the second leaf period which were cultivated using square plastic pots (size: 6.4 cm×6.4 cm) in a rate of 100 liters/10 a (ares). After drying the sprinkled leaves with air, a suspension of wheat powdery mildew spores taken from infected leaves was inoculated by spraying onto the sprinkled leaves. They were supervised in a green house (temperature: 20 to 24° C., relative humidity: 20 to 70 RH). On the 9th to 14th day after the inoculation, the infection degree was examined according to the following scale and the control value of each compound was calculated by the following calculation equation 1. [table]

Experiment [5] deals with wheat powdery mildew. The experiment in a line: Permeable mobility fungicidal effect test in leaf section of wheat powdery mildew. The format is in vivo. The conditions noted are these: length of non-contracted area relative to compound (m-2); 200 mg/l, 0.5 μl applied to wheat leaf (Abukumawase). How it is done:
(Permeable Mobility Fungicidal Effect Test in Leaf Section of Wheat Powdery Mildew) In the test example 4, permeable mobility fungicidal effect test was performed on the leaf section of wheat powdery mildew with regard to the compounds I-1 to 27 according to the present invention and the comparative compounds (a) to (d), and (m-1) to (m-3) with the method described later. <Test Method> The compound in the form of a wettable powder obtained by Formulation 2 or the like was diluted and suspended with water to a predetermined concentration (200 mg/l), and 0.5 μl of the suspension was applied to a 2 to 3 cm leaf portion from the root of the three leaves of the 4th to 4.5th leaf period wheat (variety: Abukumawase) cultured by using a square plastic pot (size: 6.4 cm×6.4 cm). After these wheat leaves were subject to still standing in a glass house (temperature: 20 to 24° C., relative humidity: 20 to 70 RH) for one day, the spores of wheat powdery mildew were inoculated over the leaves by sprinkling the same with a brush from an infected leaf, a disease was contracted in the same glass house. The length of a non-contracted area generated from the applied portion to the direction of the leaf top was measured, and a relative mobility to the compound (m-2) was calculated with the following calculation […] by using the comparative compound (m-2) as a standard compound. Relative mobility=(Length of non-contracted area in each chemical section (cm)/Length of non-contracted area of compound (m-2) (cm)) (Equation 4)

Experiment [6] concerns Leptosphaeria nodorum. Description: Antifungal activity test (PDA plate, hypha extension inhibition). The settings on record: 0.8 ppm in PDA culture medium. The format is cell-based. The protocol: as §1, with “L.n: Leptosphaeria nodorum” for “S.t: Septoria tritici”

Turning to `CC(Cc1ccc(C(F)(F)F)cc1F)CN(C)Cc1ccc(Cl)nc1` (centres unmarked) [Compound I-8], the “Control Value” in experiment [1] and in experiment [4] was 100 throughout. The “Growth Inhibition S.t (100)” value in experiment [2] is listed as 4 (Hypha extension inhibition rate of from 70% to less than 90%). For the same molecule, the “Growth Inhibition B.c (1.6)” value in experiment [3] is on record as 4 (Hypha extension inhibition rate of from 70% to less than 90%). In addition, the “Relative Mobility” value in experiment [5] turned out to be 5.
Take `CC(Cc1ccc(F)c(OC(F)(F)F)c1)CN(C)Cc1ccc(Cl)nc1` (centres unmarked) [Compound I-16]: the “Growth Inhibition L.n (0.8)” value in experiment [6] is given as 5 (Hypha extension inhibition rate of 90% or more). The “Control Value” in experiment [1] and in experiment [4] was 100 each time. Moreover, the “Growth Inhibition B.c (1.6)” value in experiment [3] was 4 (Hypha extension inhibition rate of from 70% to less than 90%). Further, the “Relative Mobility” value in experiment [5] came to 9.
In the case of `CC(Cc1ccc2c(c1)C(F)(F)OC(F)(F)O2)CN(C)Cc1ccc(Cl)nc1` (centres unmarked) [Compound I-27], the “Control Value” in experiment [1] and in experiment [4] was 100 in each case. In experiment [3], the “Growth Inhibition B.c (1.6)” value is 4 (Hypha extension inhibition rate of from 70% to less than 90%). The “Relative Mobility” value in experiment [5] turned out to be 3.
